Experiment: Deodorization evaluation with GASTEC gas detector tubes (24 hour acetic acid deodorization study)
Conditions: FIG. 1; GASTEC Detector Tube method; 24 hour equilibration; comparison with industry standard Cola®Quat SME
Excerpt: Deodorization Evaluations with GASTEC Gas Detector Tubes.
The Gas Sampling Pump Kit (GV-100S) and Gas detection tubes are manufactured by GasTec International and purchased through New Star Environmental. The pump provided in the gas sampling pump kit provides a precise vacuum on the tubes and therefore a specific volume of gas. Tubes are pre-calibrated for specific molecules, have a ppm scale on the tube, and show a color change when reacting to the target odor causing molecule. There may be corrections for temperature, humidity, or specific target molecules.
Our exemplary, general method was as follows: • 1. […] Prepare the odorant solution for the experiment. • The concentration will need to be workshopped for each odorant molecule to give an appropriate “untreated” ppm reading • 5. […]
Additionally, the method attempts to control the volume of odorant solution, volume of deodorant solution, total liquid volume, surface area of liquid, volume of headspace, and equilibration time. Ambient temperature and humidity are recorded at the start of equilibration and at the time of measurement. […] The temperature used if correction is necessary is the temperature recorded at measurement. The humidity used if correction is necessary is the humidity recorded before equilibration as this should be the main component of the humidity variations between experiments. […]

Substance: Soyamidopropyl Morpholine Ricinoleate
- reducing odor vapors from acetic acid, compared to Cola®Quat SME standard: compare favorably

Substance: soyamidopropyl dimethylamine ricinoleate
- reducing odor vapors from acetic acid, compared to Cola®Quat SME standard: compare favorably
